From patent publication US20080293681A1, “SPRAYABLE PHARMACEUTICAL COMPOSITIONS COMPRISING A VITAMIN D DERIVATIVE AND AN OILY PHASE” (GALDERMA S.A., priority 2005, published 2008)

Columns and labels:
[1] = Stability of calcitriol in Miglyol 812 (caprylic/capric triglycerides), HPLC assay against reference substance; assay type: physicochemical; details: 30 ppm in Miglyol 812 with 0.4% BHT
Description: (§1) The following example describes the stability data for calcitriol in the various excipients preferred for the composition according to the invention, including caprylic/capric triglycerides and cetearyl isononanoate. Stability of calcitriol in Miglyol 812 (caprylic/capric triglycerides) Solution of calcitriol at 30 ppm in qs 100% of Miglyol 812 in the presence of 0.4% of BHT. Assaying technique by HPLC against reference substance. At the initial time (T0), it is considered that the composition contains 100% of calcitriol. Measured concentration of calcitriol as % relative to T0: […]

[2] = Stability of calcitriol in Cetiol SN (cetearyl isononanoate), HPLC assay against reference substance; assay type: physicochemical; details: 30 ppm in Cetiol SN with 0.4% BHT
Description: as §1, with “Cetiol SN (cetearyl isononanoate)” for “Miglyol 812 (caprylic/capric triglycerides)”, “Cetiol SN (cetearyl isononanoate)” for “Miglyol 812”

Measured concentration of calcitriol as % relative to T0 ([1]; +4° C., T 2 weeks): 98.3% | Measured concentration of calcitriol as % relative to T0 ([1]; +4° C., T 4 weeks): 105.2% | Measured concentration of calcitriol as % relative to T0 ([1]; +40° C., T 2 weeks): 91% | Measured concentration of calcitriol as % relative to T0 ([1]; +40° C., T 4 weeks): 93.8% | Measured concentration of calcitriol as % relative to T0 ([1]; AT, T 2 weeks): 95.1% | Measured concentration of calcitriol as % relative to T0 ([1]; AT, T 4 weeks): 98.0% | Measured concentration of calcitriol as % relative to T0 ([2]; +4° C., T 2 weeks): 98.6% | Measured concentration of calcitriol as % relative to T0 ([2]; +4° C., T 4 weeks): 98.1% | Measured concentration of calcitriol as % relative to T0 ([2]; +40° C., T 2 weeks): 99.0% | Measured concentration of calcitriol as % relative to T0 ([2]; +40° C., T 4 weeks): 98.9% | Measured concentration of calcitriol as % relative to T0 ([2]; AT, T 2 weeks): 98.7% | Measured concentration of calcitriol as % relative to T0 ([2]; AT, T 4 weeks): 98.4%
SMILES: C=C1/C(=C\C=C2/CCC[C@]3(C)[C@@H]([C@H](C)CCCC(C)(C)O)CC[C@@H]23)C[C@@H](O)C[C@@H]1O [calcitriol]
